Test results reported in patent US20110039763A1, “TARGETED ANTIMICROBIAL MOIETIES” (C3 JIAN, INC., priority 2009, published 2011).
Entries after “also recorded” stand apart in the source; their conditions may differ.

What was measured:
microorganisms [1] = assay: Peptide activities: targeting/binding, antimicrobial, growth or phenotype altering (Tables 7, 8); type: cell-based; conditions: peptides having multiple activities
microorganisms [2] = assay: Targeting peptide binding to target microorganisms (Tables 3, 10, 12); conditions: microorganism(s) the targeting peptide binds; binding in aqueous buffers varied with peptide solubility, preferably 1x PBS
microorganisms [3] = assay: Morphology, biofilm and growth disrupting peptides (Table 5); type: cell-based; set-up: key: A: Peptide aggregates; B: Less hyphal formation; Clumps; Diffuse clumps and small polyps; F: Diffuse growth; H: Thin; I: Growth inhibition; Microcolony formation; Rippled; Small polyps; Thick; W: Halo formation on top, microlonies on bottom
Description: In certain embodiments peptides that induce alterations in phenotype or other biological activities can also be used as antimicrobial effector moieties.

Substance	Activities (microorganisms [1])	Target(s) (microorganisms [2])	Organism, effect (microorganisms [3]; C. jejuni)	Organism, effect (microorganisms [3]; E. faecalis)	Organism, effect (microorganisms [3]; S. epidermidis)	Organism, effect (microorganisms [3]; S. pneumoniae)	Organism, effect (microorganisms [3]; C. albicans)	Organism, effect (microorganisms [3]; C. jeikeium)	Organism, effect (microorganisms [3]; MRSA)	Organism, effect (microorganisms [3]; B. subtilis)
PF-614: peptide having multiple activities (chain 1 GLDIYA; chain 2 GLDIYA; Peptide with targeting and/or antimicrobial activity)	G B	S. epidermidis; also recorded: E. coli; also recorded: C. jeikeium	C. jejuni (R)	E. faecalis (A)	S. epidermidis (M)	S. pneumoniae (R)				
PF-616: peptide having multiple activities (chain 1 IVFVVTKEKK; chain 2 IVFVVTKEKK; Peptide with targeting and/or antimicrobial activity)	G B	C. jeikeium		E. faecalis (A)	S. epidermidis (R)					
PF-617: peptide having multiple activities (chain 1 PMNAAEPE; chain 2 PMNAAEPE; Peptide with targeting and/or antimicrobial activity)	G B	P. aeruginosa; also recorded: C. albicans		E. faecalis (H)		S. pneumoniae (I)	C. albicans (H)			
PF-621: peptide having multiple activities (chain 1 PPSSFLV; chain 2 PPSSFLV; Peptide with targeting and/or antimicrobial activity)	G B	S. epidermidis; also recorded: C. albicans		E. faecalis (H)		S. pneumoniae (I)				
PF-622: peptide having multiple activities (chain 1 TREDVFSVRLINNIVNKQA; chain 2 TREDVFSVRLINNIVNKQA; Peptide with targeting and/or antimicrobial activity)	G B	S. epidermidis; also recorded: P. aeruginosa; also recorded: C. albicans; also recorded: S. pneumoniae; also recorded: E. faecalis; also recorded: C. jeikeium		E. faecalis (D)	S. epidermidis (D)	S. pneumoniae (M)		C. jeikeium (D)	MRSA (D)	
PF-623: peptide having multiple activities (chain 1 VLFAVYLGALDWLFSWLTQKM; chain 2 VLFAVYLGALDWLFSWLTQKM; Peptide with targeting and/or antimicrobial activity)	G B	S. epidermidis and P. aeruginosa and MRSA and S. pneumoniae and E. faecalis and C. jeikeium		E. faecalis (D)	S. epidermidis (M)	S. pneumoniae (D)		C. jeikeium (R)	MRSA (D)	
PF-625: peptide having multiple activities (chain 1 SDSTNNARTRKKARDVTTKDIDK; chain 2 SDSTNNARTRKKARDVTTKDIDK; Peptide with targeting and/or antimicrobial activity)	G B	S. epidermidis; also recorded: M. luteus; also recorded: S. pneumoniae; also recorded: C. jeikeium				S. pneumoniae (H)				
PF-626: peptide having multiple activities (chain 1 KYDFDDFEPEEA; chain 2 KYDFDDFEPEEA; Peptide with targeting and/or antimicrobial activity)	G B	S. epidermidis and M. luteus and E. coli and C. albicans and MRSA and S. pneumoniae and E. faecalis and C. jeikeium				S. pneumoniae (H)				
PF-627: peptide having multiple activities (chain 1 INDLLSYFTLHEK; chain 2 INDLLSYFTLHEK; Peptide with targeting and/or antimicrobial activity)	G B	S. epidermidis and P. aeruginosa and MRSA and S. pneumoniae and E. faecalis and C. jeikeium		E. faecalis (H)	S. epidermidis (H)	S. pneumoniae (I)	C. albicans (B)		MRSA (R)	
PF-629: peptide having multiple activities (chain 1 GLAAIATVFALY; chain 2 GLAAIATVFALY; Peptide with targeting and/or antimicrobial activity)	G B	S. epidermidis and P. aeruginosa and C. albicans and MRSA and S. pneumoniae and E. faecalis and C. jeikeium		E. faecalis (R)	S. epidermidis (C)	S. pneumoniae (M)		C. jeikeium (R)	MRSA (D)	
PF-631: peptide having multiple activities (chain 1 LIIYFSKTGNTARATRQI; chain 2 LIIYFSKTGNTARATRQI; Peptide with targeting and/or antimicrobial activity)	G B	S. epidermidis and P. aeruginosa and C. albicans and MRSA and S. pneumoniae and E. faecalis and C. jeikeium		E. faecalis (H)		S. pneumoniae (I)				
PF-632: peptide having multiple activities (chain 1 TTIQGVASLEKHGFRYTIIYPTRI; chain 2 TTIQGVASLEKHGFRYTIIYPTRI; Peptide with targeting and/or antimicrobial activity)	G B	S. epidermidis and P. aeruginosa and C. albicans and MRSA and S. pneumoniae and E. faecalis and C. jeikeium		E. faecalis (D)	S. epidermidis (D)	S. pneumoniae (M)	C. albicans (B)	C. jeikeium (D)	MRSA (D)	B. subtilis (H)
PF-636: peptide having multiple activities (chain 1 LVRLA; chain 2 LVRLA; Peptide with targeting and/or antimicrobial activity)	G B	S. epidermidis and C. albicans and MRSA and S. pneumoniae and E. faecalis		E. faecalis (H)		S. pneumoniae (H)	C. albicans (B)			B. subtilis (H)
PF-637: peptide having multiple activities (chain 1 SRIKQDARSVRKYDRIGIFFYSFKSA; chain 2 SRIKQDARSVRKYDRIGIFFYSFKSA; Peptide with targeting and/or antimicrobial activity)	G B	S. epidermidis and P. aeruginosa and C. albicans and MRSA and S. pneumoniae and E. faecalis and C. jeikeium		E. faecalis (D)	S. epidermidis (M)	S. pneumoniae (M)		C. jeikeium (D)	MRSA (M)	
PF-638: peptide having multiple activities (chain 1 TFILPK; chain 2 TFILPK; Peptide with targeting and/or antimicrobial activity)	G B	S. epidermidis and C. albicans and MRSA and C. jeikeium		E. faecalis (H)	S. epidermidis (R)	S. pneumoniae (I)			MRSA (M)	
PF-639: peptide having multiple activities (chain 1 QATQIKSWIDRLLVSED; chain 2 QATQIKSWIDRLLVSED; Peptide with targeting and/or antimicrobial activity)	G B	S. pneumoniae; also recorded: C. jeikeium		E. faecalis (H)		S. pneumoniae (I)	C. albicans (B)		MRSA (R)	
PF-640: peptide having multiple activities (chain 1 MGDINRNF; chain 2 MGDINRNF; Peptide with targeting and/or antimicrobial activity)	G B	C. albicans		E. faecalis (H)		S. pneumoniae (I)	C. albicans (B)			
PF-642: peptide having multiple activities (chain 1 FTTPMIGIPAGLLGGSYYLKRREEKGK; chain 2 FTTPMIGIPAGLLGGSYYLKRREEKGK; Peptide with targeting and/or antimicrobial activity)	G B	M. luteus and MRSA and C. jeikeium							MRSA (M)	
PF-655: peptide having multiple activities (chain 1 DAPCFDDQFGDLKCQMC; chain 2 DAPCFDDQFGDLKCQMC; Peptide with targeting and/or antimicrobial activity)	G B	M. smegmatis			S. epidermidis (R)	S. pneumoniae (H)			MRSA (M)	B. subtilis (H)
PF-664: peptide having multiple activities (chain 1 DQLCVEYPARVSTG; chain 2 DQLCVEYPARVSTG; Peptide with targeting and/or antimicrobial activity)	G B	M. smegmatis		E. faecalis (R)	S. epidermidis (M)	S. pneumoniae (M)			MRSA (R)	
